For 19 compounds, IC50 results are on record in patent US20230399342A1 (Incyte Corporation, priority 2022, published 2023).

For experiment [1], the target named is DGKα (Homo sapiens (Human), UniProt P23743). Description: In vitro DGKα inhibition assay (ADP-Glo). The format is biochemical. To be noted: His-tagged human recombinant enzyme, 0.1 nM DGKα, 50 μM ATP, 20 μM DLG, 90 minute incubation. The method, boiled down:
(§1)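 His-tagged human DGKα (0.1 nM, 50 μM ATP) or DGKζ (0.4 nM, 30 μM ATP), each with 20 μM DLG, in Tris pH 7.5 buffer with CHAPS, Mg2+, Ca2+.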

The target of experiment [2] is DGKζ (Homo sapiens (Human), UniProt Q13574). Briefly: In vitro DGKζ inhibition assay (ADP-Glo). The format is biochemical. Conditions: His-tagged human recombinant enzyme, 0.4 nM DGK, 30 μM ATP, 20 μM DLG, 90 minute incubation. An outline of the steps:
as §1
On the technique in general: ADP-Glo turns the ADP formed in a reaction into a luminescent signal.

As usually defined, the IC50 is the concentration needed to halve the response being measured.

Chain of DGKζ (Q13574 whole entry): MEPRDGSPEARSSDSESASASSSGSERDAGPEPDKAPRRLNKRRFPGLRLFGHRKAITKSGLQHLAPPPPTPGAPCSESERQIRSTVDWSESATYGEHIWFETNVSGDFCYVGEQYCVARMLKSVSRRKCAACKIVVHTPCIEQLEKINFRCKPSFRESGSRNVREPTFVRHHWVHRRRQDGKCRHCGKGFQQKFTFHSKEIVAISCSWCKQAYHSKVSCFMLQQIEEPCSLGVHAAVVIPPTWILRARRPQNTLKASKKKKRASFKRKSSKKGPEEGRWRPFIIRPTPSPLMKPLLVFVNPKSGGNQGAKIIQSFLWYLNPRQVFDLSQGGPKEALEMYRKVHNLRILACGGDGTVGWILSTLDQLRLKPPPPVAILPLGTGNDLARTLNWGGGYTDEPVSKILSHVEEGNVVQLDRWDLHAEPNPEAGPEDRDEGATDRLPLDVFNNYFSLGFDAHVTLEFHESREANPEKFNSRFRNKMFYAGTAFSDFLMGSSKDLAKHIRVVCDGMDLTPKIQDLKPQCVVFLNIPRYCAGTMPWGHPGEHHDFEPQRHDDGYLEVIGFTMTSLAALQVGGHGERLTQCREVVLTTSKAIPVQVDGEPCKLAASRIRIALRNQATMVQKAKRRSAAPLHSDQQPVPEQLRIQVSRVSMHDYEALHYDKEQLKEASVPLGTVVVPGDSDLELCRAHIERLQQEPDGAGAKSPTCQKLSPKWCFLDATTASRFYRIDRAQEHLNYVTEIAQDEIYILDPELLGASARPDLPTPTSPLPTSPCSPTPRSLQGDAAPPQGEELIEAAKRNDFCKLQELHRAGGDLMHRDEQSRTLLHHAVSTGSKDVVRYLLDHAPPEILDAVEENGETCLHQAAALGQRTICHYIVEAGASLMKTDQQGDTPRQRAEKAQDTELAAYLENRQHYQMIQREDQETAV
Chain of DGKα (P23743 whole entry): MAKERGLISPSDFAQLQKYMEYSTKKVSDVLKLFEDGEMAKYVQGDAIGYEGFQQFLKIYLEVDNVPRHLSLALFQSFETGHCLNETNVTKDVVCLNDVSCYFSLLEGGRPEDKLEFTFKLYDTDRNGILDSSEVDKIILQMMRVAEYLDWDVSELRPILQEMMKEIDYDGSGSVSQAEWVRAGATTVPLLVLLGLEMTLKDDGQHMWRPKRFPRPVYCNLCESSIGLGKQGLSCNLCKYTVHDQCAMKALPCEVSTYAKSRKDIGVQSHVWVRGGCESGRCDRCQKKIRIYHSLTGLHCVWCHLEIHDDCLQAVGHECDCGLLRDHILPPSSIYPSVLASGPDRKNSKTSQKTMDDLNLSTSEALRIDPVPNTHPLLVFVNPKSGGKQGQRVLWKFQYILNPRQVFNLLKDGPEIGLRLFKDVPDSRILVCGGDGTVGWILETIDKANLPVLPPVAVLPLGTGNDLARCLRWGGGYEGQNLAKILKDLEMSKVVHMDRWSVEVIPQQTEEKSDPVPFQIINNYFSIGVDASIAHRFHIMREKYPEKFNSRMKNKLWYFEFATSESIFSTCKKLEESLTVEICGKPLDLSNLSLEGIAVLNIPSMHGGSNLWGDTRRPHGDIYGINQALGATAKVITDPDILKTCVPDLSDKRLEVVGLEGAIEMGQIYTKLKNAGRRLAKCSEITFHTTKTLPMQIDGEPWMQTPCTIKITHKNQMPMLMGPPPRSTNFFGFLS

With `C[C@@H]1CN(c2nc3nncn3c3c2nnn3C[C@H]2CCCO2)[C@@H](C)CN1C(c1ccc(Br)cc1)c1ccc(Br)cc1` [Example 110, 4-((2S,5R)-4-(Bis(4-bromophenyl)methyl)-2,5-dimethylpiperazin-1-yl)-1-(((R)-tetrahydrofuran-2-yl)methyl)-1H-[1,2,3]triazolo[4,5-e][1,2,4]triazolo[4,3-a]pyrimidine], the IC50 in experiment [1] and in experiment [2] was no more than 20 nM throughout.

Regarding `C[C@@H]1CN(c2nc3nncn3c3c2nnn3C[C@@H]2CCCO2)[C@@H](C)CN1C(c1ccc(Br)cc1)c1ccc(Br)cc1` [Example 111, 4-((2S,5R)-4-(Bis(4-bromophenyl)methyl)-2,5-dimethylpiperazin-1-yl)-1-(((S)-tetrahydrofuran-2-yl)methyl)-1H-[1,2,3]triazolo[4,5-e][1,2,4]triazolo[4,3-a]pyrimidine], the IC50 in experiment [1] and in experiment [2] was no more than 20 nM each time.

On to `C[C@@H]1CN(c2nc3nncn3c3c2ncn3CCN(C)C)[C@@H](C)CN1C(c1ccc(C(F)(F)F)cn1)c1ccc(C(F)(F)F)cn1` [Example 112, 2-(4-((2S,5R)-4-(Bis(5-(trifluoromethyl)pyridin-2-yl)methyl)-2,5-dimethylpiperazin-1-yl)-1H-[1,2,4]triazolo[3,4-b]purin-1-yl)-N,N-dimethylethan-1-amine], for which the 50% inhibitory concentration (IC50) in experiment [1] and in experiment [2] was no more than 20 nM each time.

As for `Cc1nc2c(N3C[C@@H](C)N(C(c4ccc(F)c(Cl)c4)[C@H]4C[C@H](C(F)(F)F)C4)C[C@@H]3C)nc3nncn3c2n1C[C@@H]1CCCO1` (stereo partly drawn) [Example 113, 4-((2S,5R)-4-((3-Chloro-4-fluorophenyl)((trans)-3-(trifluoromethyl)cyclobutyl)methyl)-2,5-dimethylpiperazin-1-yl)-2-methyl-1-(((S)-tetrahydrofuran-2-yl)methyl)-1H-[1,2,4]triazolo[3,4-b]purine], the IC50 in experiment [1] and in experiment [2] was no more than 20 nM throughout.

As for `C[C@@H]1CN(c2nc3nncn3c3c2ncn3CCN(C)C)[C@@H](C)CN1C(c1ccc(F)c(Cl)c1)[C@H]1C[C@H](C(F)(F)F)C1` (stereo partly drawn) [Example 114, 2-(4-((2S,5R)-4-((3-chloro-4-fluorophenyl)((trans)-3-(trifluoromethyl)cyclobutyl)methyl)-2,5-dimethylpiperazin-1-yl)-1H-[1,2,4]triazolo[3,4-b]purin-1-yl)-N,N-dimethylethan-1-amine], the 50% inhibitory concentration (IC50) in experiment [1] and in experiment [2] was no more than 20 nM in each case.

As to `Cc1nc2c(N3C[C@@H](C)N(C(c4ccc(C(F)(F)F)cc4)[C@H]4C[C@H](C(F)(F)F)C4)C[C@@H]3C)nc3nncn3c2n1C[C@@H]1CCCO1` (stereo partly drawn) [Example 115, 4-((2S,5R)-2,5-Dimethyl-4-(((trans)-3-(trifluoromethyl)cyclobutyl)(4-(trifluoromethyl)phenyl)methyl)piperazin-1-yl)-2-methyl-1-(((S)-tetrahydrofuran-2-yl)methyl)-1H-[1,2,4]triazolo[3,4-b]purine], the IC50 in experiment [1] and in experiment [2] was no more than 20 nM in each case.

For `C[C@@H]1CN(c2nc3nncn3c3c2ncn3CCN(C)C)[C@@H](C)CN1C(c1ccc(C(F)(F)F)cc1)[C@H]1C[C@H](C(F)(F)F)C1` (stereo partly drawn) [Example 116, 2-(4-((2S,5R)-2,5-Dimethyl-4-(((trans)-3-(trifluoromethyl)cyclobutyl)(4-(trifluoromethyl)phenyl)methyl)piperazin-1-yl)-1H-[1,2,4]triazolo[3,4-b]purin-1-yl)-N,N-dimethylethan-1-amine], the IC50 in experiment [1] and in experiment [2] was no more than 20 nM each time.

With `Cc1nc2c(N3C[C@@H](C)N(C(c4ccc(C(F)(F)F)cc4)C4CCC(F)(F)CC4)C[C@@H]3C)nc3nncn3c2n1C[C@@H]1CCCO1` (stereo partly drawn) [Example 117, 4-((2S,5R)-4-((4,4-Difluorocyclohexyl)(4-(trifluoromethyl)phenyl)methyl)-2,5-dimethylpiperazin-1-yl)-2-methyl-1-(((S)-tetrahydrofuran-2-yl)methyl)-1H-[1,2,4]triazolo[3,4-b]purine], the IC50 in experiment [1] and in experiment [2] was no more than 20 nM throughout.

For `Cc1nc2c(N3C[C@@H](C)N([C@H](c4ccc(OC(F)(F)F)cc4)C(C)C)C[C@@H]3C)nc3nncn3c2n1C[C@@H]1CCCO1` [Example 118, 4-((2S,5R)-2,5-Dimethyl-4-((S)-2-methyl-1-(4-(trifluoromethoxy)phenyl)propyl)piperazin-1-yl)-2-methyl-1-(((S)-tetrahydrofuran-2-yl)methyl)-1H-[1,2,4]triazolo[3,4-b]purine], the IC50 in experiment [1] and in experiment [2] was no more than 20 nM throughout.

For the compound `Cc1nc2c(N3C[C@@H](C)N([C@@H](c4ccc(OC(F)(F)F)cc4)C(C)C)C[C@@H]3C)nc3nncn3c2n1C[C@@H]1CCCO1` [Example 119, 4-((2S,5R)-2,5-dimethyl-4-((R)-2-methyl-1-(4-(trifluoromethoxy)phenyl)propyl)piperazin-1-yl)-2-methyl-1-(((S)-tetrahydrofuran-2-yl)methyl)-1H-[1,2,4]triazolo[3,4-b]purine], the half-maximal inhibitory concentration (IC50) in experiment [1] and in experiment [2] was no more than 20 nM in each case.

On to `CC[C@@H]1CN(c2nc3nncn3c3c2nnn3C[C@@H]2CCCO2)[C@@H](C)CN1C(c1ccc(Cl)cc1)C1CC(F)(F)C1` (stereo partly drawn) [Example 121, 4-((2S,5R)-4-((4-Chlorophenyl)(3,3-difluorocyclobutyl)methyl)-5-ethyl-2-methylpiperazin-1-yl)-1-(((S)-tetrahydrofuran-2-yl)methyl)-1H-[1,2,3]triazolo[4,5-e][1,2,4]triazolo[4,3-a]pyrimidine], for which the half-maximal inhibitory concentration (IC50) in experiment [1] and in experiment [2] was no more than 20 nM each time.

`Cc1nc2c(N3C[C@@H](CO)N(C(c4ccc(C(F)(F)F)cc4)C4CC(F)(F)C4)C[C@@H]3C)nc3nncn3c2n1C[C@@H]1CCCO1` (stereo partly drawn) [Example 122, ((2S,5S)-1-((3,3-Difluorocyclobutyl)(4-(trifluoromethyl)phenyl)methyl)-5-methyl-4-(2-methyl-1-(((S)-tetrahydrofuran-2-yl)methyl)-1H-[1,2,4]triazolo[3,4-b]purin-4-yl)piperazin-2-yl)methanol]: the IC50 in experiment [1] and in experiment [2] was no more than 20 nM each time.

As to `Cc1nc2c(N3C[C@@H]([C@@H](C)O)N(C(c4ccc(F)cc4)c4ccc(F)cc4)C[C@@H]3C)nc3nncn3c2n1C[C@@H]1CCCO1` [Example 123, (R)-1-((2S,5S)-1-(Bis(4-fluorophenyl)methyl)-5-methyl-4-(2-methyl-1-(((S)-tetrahydrofuran-2-yl)methyl)-1H-[1,2,4]triazolo[3,4-b]purin-4-yl)piperazin-2-yl)ethan-1-ol], the 50% inhibitory concentration (IC50) in experiment [1] and in experiment [2] was no more than 20 nM each time.

Take `Cc1nc2c(N3C[C@@H]([C@H](C)O)N(C(c4ccc(F)cc4)c4ccc(F)cc4)C[C@@H]3C)nc3nncn3c2n1C[C@@H]1CCCO1` [Example 124, (S)-1-((2S,5S)-1-(bis(4-fluorophenyl)methyl)-5-methyl-4-(2-methyl-1-(((S)-tetrahydrofuran-2-yl)methyl)-1H-[1,2,4]triazolo[3,4-b]purin-4-yl)piperazin-2-yl)ethan-1-ol]: the IC50 in experiment [1] and in experiment [2] was no more than 20 nM throughout.

With `CC[C@@H]1CN(c2nc3nncn3c3c2nc(C)n3C[C@@H]2CCCO2)[C@@H](C)CN1C(CO)(c1ccc(F)cc1)c1ccc(F)cc1` [Example 125, 2-((2R,5S)-2-Ethyl-5-methyl-4-(2-methyl-1-(((S)-tetrahydrofuran-2-yl)methyl)-1H-[1,2,4]triazolo[3,4-b]purin-4-yl)piperazin-1-yl)-2,2-bis(4-fluorophenyl)ethan-1-01], the half-maximal inhibitory concentration (IC50) in experiment [1] and in experiment [2] was no more than 20 nM throughout.

For the compound `CC[C@@H]1CN(c2nc3nncn3c3c2nc(C)n3C[C@@H]2CCCO2)[C@@H](C)CN1[C@H](c1ccc(OC(F)F)cc1)C(C)C` [Example 126, 4-((2S,5R)-4-((S)-1-(4-(Difluoromethoxy)phenyl)-2-methylpropyl)-5-ethyl-2-methylpiperazin-1-yl)-2-methyl-1-(((S)-tetrahydrofuran-2-yl)methyl)-1H-[1,2,4]triazolo[3,4-b]purine], the IC50 in experiment [1] and in experiment [2] was no more than 20 nM each time.

For `CC[C@@H]1CN(c2nc3nncn3c3c2nc(C)n3C[C@@H]2CCCO2)[C@@H](C)CN1[C@@H](c1ccc(OC(F)F)cc1)C(C)C` [Example 127, 4-((2S,5R)-4-((R)-1-(4-(difluoromethoxy)phenyl)-2-methylpropyl)-5-ethyl-2-methylpiperazin-1-yl)-2-methyl-1-(((S)-tetrahydrofuran-2-yl)methyl)-1H-[1,2,4]triazolo[3,4-b]purine], the IC50 in experiment [1] and in experiment [2] was no more than 20 nM in each case.

As for `CC[C@@H]1CN(c2nc3nncn3c3c2nc(C)n3C[C@@H]2CCCO2)[C@@H](C)CN1[C@H](c1ccc(C(F)(F)F)cc1)C(C)C` [Example 128, 4-((2S,5R)-5-Ethyl-2-methyl-4-((S)-2-methyl-1-(4-(trifluoromethyl)phenyl)propyl)piperazin-1-yl)-2-methyl-1-(((S)-tetrahydrofuran-2-yl)methyl)-1H-[1,2,4]triazolo[3,4-b]purine], the IC50 in experiment [1] and in experiment [2] was no more than 20 nM in each case.

On to `CC[C@@H]1CN(c2nc3nncn3c3c2nc(C)n3C[C@@H]2CCCO2)[C@@H](C)CN1[C@@H](c1ccc(C(F)(F)F)cc1)C(C)C` [Example 129, 4-((2S,5R)-5-Ethyl-2-methyl-4-((R)-2-methyl-1-(4-(trifluoromethyl)phenyl)propyl)piperazin-1-yl)-2-methyl-1-(((S)-tetrahydrofuran-2-yl)methyl)-1H-[1,2,4]triazolo[3,4-b]purine], for which the half-maximal inhibitory concentration (IC50) in experiment [1] and in experiment [2] was no more than 20 nM throughout.
